Source: US20250241876A1, “ANTI-TUMOR COMPOUNDS AND METHODS OF USE THEREOF AND SYNTHESIS THEREOF” (Atossa Therapeutics, Inc., priority 2023, published 2025)

Key:
Assay type in all cases: cell-based
UCD12 cells = assay: 2D culture proliferation, UCD12; conditions: 2D cultures, estrogen-containing media
Description: (§1) Approximately 80% of breast cancers express estrogen receptor alpha (ERα, ESR1) which drives cancer progression. […] (Z)-Endoxifen (ENDX), an active metabolite of tamoxifen, is a potent orally bioavailable selective estrogen receptor modulator with a favorable safety profile now under development for breast health applications. Its synthesis yields endoxifen-related byproduct new chemical entities (NCE), including Compound 7b, Compound 7a, Compound 5b and Compound 5a. This study compared the anti-estrogenic effects of these compounds to (Z)-endoxifen in ERα+ breast cancer cell lines (MCF7, T47D, UCD12), including those with ESR1 mutations (Y537S, D538G) linked to endocrine resistance.

[1] = system: ERα+ breast cancer cell lines (MCF7, T47D, UCD12), including those with ESR1 mutations (Y537S, D538G); assay: 2D culture proliferation, all lines, Example 29; conditions: 2D cultures, estrogen-containing media, 0.02-5 μM, across all lines; p<0.0001 vs. vehicle
Description: as §1

MCF7 cells [2] = assay: 2D culture proliferation, MCF7; conditions: 2D cultures, estrogen-containing media
Description: as §1

[3] = system: ERα+ breast cancer cell lines; assay: Cell cycle arrest, Example 29
Description: as §1

[4] = system: T47D cells with Y537S or D538G mutations; assay: Proliferation, T47D ESR1 mutants
Description: as §1

T47D cells [5] = assay: Apoptosis induction, T47D, Example 29; conditions: for apoptosis induction in T47D cells: p<0.0001 vs. vehicle
[6] = system: ERα+ breast cancer cell lines in 3D cultures; assay: 3D culture cancer cell proliferation; conditions: ~1 μM
Description: as §1

[7] = system: ERα+ breast cancer cell lines; assay: RT-qPCR analysis; conditions: 0.1 μM
T47D cells [8] = assay: Migration and invasion inhibition assays, T47D; conditions: p<0.0001
T47D cells [9] = assay: 2D culture proliferation, T47D; conditions: estrogen-deficient conditions
Description: as §1

T47D cancer cells = assay: Cell migration (scratch-wound) assay, Example 20; conditions: high doses (FIGS. 58, 60, 62); 0 to 100 hours
Description: This example covers cell migration assays with endoxifen and multiple endoxifen-related compounds on T47D cancer cells. FIGS. 52A, 53A, 54A, 55A, and 56A are plots of relative wound density following treatment with vehicle or 0.02 to 6 μM endoxifen (FIG. 52A), Compound 5b (FIG. 53A), Compound 5a (FIG. 54A), Compound 7a (FIG. 55A), and Compound 7b (FIG. 56A) as a function of time (0 to 100 hours). FIGS. 52B, 53B, 54B, 55B, and 56B are plots of wound width following treatment with vehicle or 0.02 to 6 μM endoxifen (FIG. 52B), Compound 5b (FIG. 53B), Compound 5a (FIG. 54B), Compound 7a (FIG. 55B), and Compound 7b (FIG. 56B) as a function of time (0 to 100 hours). FIGS. 52C, 53C, 54C, 55C, and 56C are series of plots of individual replicates of relative wound density and wound width for endoxifen, Compound 5b, Compound 5a, Compound 7a, and Compound 7b, respectively. FIG. 57 is a plot of relative wound density over time (0 to 100 hours) for a wound treated with vehicle (DMSO), 5 μM endoxifen, 5 μM Compound 5b, and 5 μM Compound 5a. FIG. 58 is a plot of relative wound density over time (0 to 100 hours) for a wound treated with vehicle (DMSO), 5 μM endoxifen, 5 μM Compound 7a, and 5 μM Compound 7b. FIG. 59 is a plot of relative wound density over time (0 to 100 hours) for a wound treated with vehicle (DMSO), 2.5 μM endoxifen, 2.5 μM Compound 5b, and 2.5 μM Compound 5a. […]

MCF7 cells [10] = assay: Migration and invasion inhibition assays, MCF7; conditions: p<0.0001
MCF7 cells [11] = assay: Scratch-wound cell migration assay, Example 24, MCF7; conditions: highest dose examined (5 μM)
Description: (§2) This example covers cell migration assays with endoxifen and endoxifen-related compounds. Scratch-wound density and width measurements were tracked for 70 to 100 hours in MCF7 and T47D samples following treatment with a compound. […] FIG. 75 is a series of images of masked and unmasked wounds from the cell migration assays, with the rightmost figure showing invadopodia in cells within wound sites. In FIGS. 76-85, subfigure A is a plot of relative wound density, subfigure B is a plot of wound width, and subfigure C is a series of representative wound images from Day 3 or 4 of treatment. FIGS. 76-85 correspond to endoxifen treatment of MCF7 samples (FIG. 76), endoxifen treatment of T47D samples (FIG. 77), Compound 5b treatment of MCF7 samples (FIG. 78), Compound 5b treatment of T47D samples (FIG. 79), Compound 5a treatment of MCF7 samples (FIG. 80), Compound 5a treatment of T47D samples (FIG. 81), Compound 7b treatment of MCF7 samples (FIG. 82), Compound 7b treatment of T47D samples (FIG. 83), Compound 7a treatment of MCF7 samples (FIG. 84), and Compound 7a treatment of T47D samples (FIG. 85), respectively. […]
(§3) Migration inhibition was primarily detected at the highest tested dose (5 μM), which may be due to the fact that MCF7 and T47D cells are not migratory in nature under normal conditions. […]

T47D cells [12] = assay: Anti-invasion (scratch wound) assay, Example 25; conditions: 1.25, 2.5, 5 μM
Description: This example covers anti-invasion, apoptosis, and toxicity assays for various endoxifen-related compounds against multiple cancer cell lines. FIGS. 90A-F are plots that summarize results of proliferation assays for multiple cancer cell lines (MCF7, T47D, UCD4, and UCD12) in the presence of varying doses of endoxifen and multiple endoxifen-related compounds. FIGS. 91A-C are plots that summarize results of wound confluence measurements from scratch wound assays on T47D cells in the presence of 1.25 μM (FIG. 91A), 2.5 μM (FIG. 91B), and 5 μM (FIG. 91C) endoxifen and multiple endoxifen-related compounds. FIGS. 92A-C are plots that summarize results of wound density measurements from scratch wound assays on T47D cells in the presence of 1.25 μM (FIG. 92A), 2.5 μM (FIG. 92B), and 5 μM (FIG. 92C) endoxifen and multiple endoxifen-related compounds. FIGS. 93A-C are plots that summarize results of wound confluence measurements from scratch wound assays on MCF7 cells in the presence of 1.25 μM (FIG. 93A), 2.5 μM (FIG. 93B), and 5 μM (FIG. 93C) endoxifen and multiple endoxifen-related compounds. FIGS. 94A-C are plots that summarize results of wound density measurements from scratch wound assays on MCF7 cells in the presence of 1.25 μM (FIG. 94A), 2.5 μM (FIG. 94B), and 5 μM (FIG. 94C) endoxifen and multiple endoxifen-related compounds. […]

T47D cells [13] = assay: Scratch-wound cell migration assay, Example 24, T47D; conditions: highest dose examined (5 μM)
Description: as §2, §3

[14] = system: estrogen-induced and ERα-mediated activation of an estrogen response element (ERE) luciferase reporter construct in ER+ T47D cells; assay: Luciferase (ERE reporter) agonist/antagonist assay, ER+ cells; conditions: CSS+E2 media

CC/C(=C(\c1ccc(O)cc1)c1ccc(OCCNC)cc1)c1ccccc1 [(Z)-endoxifen, (Z)-Endoxifen, reference compound] was tested, and the “anti-proliferative effect, ranking” value (UCD12 cells) was “strongest effects”, the “anti-proliferative effect, inhibition” value [1] was 20-90% and the “anti-proliferative effect, ranking” value (MCF7 cells [2]) was “strongest effects”. The “G1 cell cycle arrest” value [3] was “most effective”, the “potency, ranking” value [4] was “most potent” and the “apoptosis induction in T47D cells, ranking” value (T47D cells [5]) was “superior activity”. For the same compound, the “apoptosis induction in T47D cells” value (T47D cells [5]) was “significantly induced”, the “potency in 3D cultures, ranking” value [6] was “comparable, superior potency” and the “RT-qPCR analysis, potency ranking” value [7] was “most potent”.

For CC/C(=C(/c1ccc(O)cc1)c1ccc(OCCN(C)C(C)=O)cc1)c1ccccc1 [Compound 7b], the “migration and invasion inhibition compared with (Z)-endoxifen” value (T47D cells [8]) was “consistently outperformed (Z)-endoxifen”, the “anti-proliferative activity compared with (Z)-endoxifen” value (T47D cells [9]) was “more effective” and the “potency at inhibiting the migration and proliferation of T47D cells compared with endoxifen” value (T47D cancer cells) was “greater potency than endoxifen”. The “migration and invasion inhibition compared with (Z)-endoxifen” value (MCF7 cells [10]) was “consistently outperformed (Z)-endoxifen”, the “potency at inhibiting the migration and proliferation compared with endoxifen” value (MCF7 cells [11]) was “more potent than endoxifen” and the “potency at inhibiting the invasion of T47D cells compared with endoxifen” value (T47D cells [12]) was “more potent than endoxifen”. For the same compound, the “potency at inhibiting the migration and proliferation compared with endoxifen” value (T47D cells [13]) was “more potent than endoxifen”, the “apoptosis induction in T47D cells” value (T47D cells [5]) was “significantly induced” and the “anti-proliferative effects in ER+ cells compared with endoxifen” value [14] was “closely resemble that of endoxifen”.
